Measurements reported in US9205121B2, “Echinacea formulation” (Integria Healthcare (Australia) PTY LTD, priority 2004, dated 2015).

How the values were obtained:
Experiment in all cases: metabolism of 3 by recombinant human P450
Type in all cases: in vitro ADME
[1] = target: T1, P450 2C8 (Homo sapiens, UniProt P10632); details: recombinant P450 2C8, preliminary screen
T1 construct: made in house; host or cells: Escherichia coli, bacterial membrane fraction, bicistronic construct in pCW
T1 sequence (P10632 1-490): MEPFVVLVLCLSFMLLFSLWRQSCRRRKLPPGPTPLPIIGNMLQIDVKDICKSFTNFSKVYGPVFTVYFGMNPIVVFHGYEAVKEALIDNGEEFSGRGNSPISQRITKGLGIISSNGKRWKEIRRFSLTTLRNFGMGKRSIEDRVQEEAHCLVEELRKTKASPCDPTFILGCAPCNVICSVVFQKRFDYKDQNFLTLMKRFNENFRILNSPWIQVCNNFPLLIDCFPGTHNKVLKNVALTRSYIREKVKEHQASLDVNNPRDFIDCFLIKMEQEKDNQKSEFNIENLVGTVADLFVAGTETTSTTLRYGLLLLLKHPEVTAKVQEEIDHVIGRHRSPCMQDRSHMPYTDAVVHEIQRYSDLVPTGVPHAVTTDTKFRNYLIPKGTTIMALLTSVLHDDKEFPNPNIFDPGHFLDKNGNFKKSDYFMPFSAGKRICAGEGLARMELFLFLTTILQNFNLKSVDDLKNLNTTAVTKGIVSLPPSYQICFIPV
Excerpt: (§1) Recombinant P450s were co-expressed with hNPR in Escherichia coli according to the general procedures outlined previously. Recombinant P450 preparations were obtained from bacteria transformed with bicistronic expression vectors for P450s 1A1, 1A2, 2D6, 2E1 and 3A4 [6]; 1B1 [10]; 2A6 [8]; P450 2B6 [11]; 2C9 (wild type; P450 2C9*1) and 2C19 [12]; 3A5 and 3A7 [12] and 4A11 (D. Kim and F. P. Guengerich, unpublished data). cDNAs for P450s 2C8 and 2C18 were obtained from Prof D. J. Birkett (Flinders University of South Australia) and Prof. Philippe Beaune (INSERM U490, Universite Rene Descartes, Paris V, France) respectively, and bicistronic constructs in pCW were made according to previously published methods. Membranes from cells transformed with the monocistronic expression vector for recombinant human reductase, pCW′/hNPR, were used as a negative control. Expression of P450s and preparation of bacterial membrane fractions was done according to established methods.
(§2) Incubations (0.2 mL) with recombinant enzyme preparations were performed as described above except that bacterial membrane preparations were used at 0.1 μM P450. For P450s 3A4 and 3A5, reductase concentrations were supplemented to two fold the P450 concentration by addition of membranes from cells expressing reductase alone. For P450s 2C9 and 2C19, reductase concentrations were supplemented to five fold the P450 concentration. Negative controls contained bacterial membranes derived from cells transformed with the empty expression vector alone (“pCW”) or cells expressing only reductase (“hNPR”). Negative controls contained membranes added at total protein (“pCW”) or reductase “hNPR”) concentrations at the upper limit of those present in incubations with recombinant P450 preparations.
(§3) A preliminary screen was performed to investigate metabolism of 3 by recombinant human P450s.

[2] = target: T2, P450 1A1 (Homo sapiens, UniProt P04798); details: recombinant P450 1A1, preliminary screen
T2 construct: made in house; host or cells: Escherichia coli, bacterial membrane fraction, bicistronic vector
T2 sequence (P04798 1-512): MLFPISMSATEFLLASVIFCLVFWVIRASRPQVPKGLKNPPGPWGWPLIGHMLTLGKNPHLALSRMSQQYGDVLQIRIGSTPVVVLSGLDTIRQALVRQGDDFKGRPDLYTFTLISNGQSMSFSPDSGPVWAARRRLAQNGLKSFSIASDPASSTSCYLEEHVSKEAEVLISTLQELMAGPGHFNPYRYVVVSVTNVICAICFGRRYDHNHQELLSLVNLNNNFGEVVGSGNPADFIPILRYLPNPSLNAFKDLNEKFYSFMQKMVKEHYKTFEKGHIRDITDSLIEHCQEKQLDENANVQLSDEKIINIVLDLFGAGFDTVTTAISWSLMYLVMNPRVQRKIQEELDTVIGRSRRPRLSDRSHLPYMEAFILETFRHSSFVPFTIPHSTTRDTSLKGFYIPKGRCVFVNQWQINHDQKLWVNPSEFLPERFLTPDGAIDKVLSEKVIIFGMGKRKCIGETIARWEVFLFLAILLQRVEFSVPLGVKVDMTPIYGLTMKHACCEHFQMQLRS
Excerpt: as §1, §2, §3

[3] = system: P450 3A4; details: recombinant P450 3A4, preliminary screen
Excerpt: as §1, §2, §3

[4] = target: T3, P450 2D6 (Homo sapiens, UniProt P10635); details: recombinant P450 2D6, preliminary screen
T3 construct: made in house; host or cells: Escherichia coli, bacterial membrane fraction, bicistronic vector
T3 sequence (P10635 whole entry): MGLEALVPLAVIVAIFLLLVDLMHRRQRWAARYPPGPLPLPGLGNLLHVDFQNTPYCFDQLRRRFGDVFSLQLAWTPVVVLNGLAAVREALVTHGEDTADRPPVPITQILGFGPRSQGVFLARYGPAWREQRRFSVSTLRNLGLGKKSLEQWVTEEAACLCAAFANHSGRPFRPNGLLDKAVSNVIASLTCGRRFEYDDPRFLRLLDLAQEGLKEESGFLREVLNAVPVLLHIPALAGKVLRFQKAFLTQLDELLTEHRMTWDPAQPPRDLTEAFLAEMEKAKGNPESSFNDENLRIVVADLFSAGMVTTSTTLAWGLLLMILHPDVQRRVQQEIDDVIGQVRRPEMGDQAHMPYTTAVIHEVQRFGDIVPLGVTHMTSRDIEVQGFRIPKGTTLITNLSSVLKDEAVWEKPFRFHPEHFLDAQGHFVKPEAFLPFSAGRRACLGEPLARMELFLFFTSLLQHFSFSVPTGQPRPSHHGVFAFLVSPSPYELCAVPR
Excerpt: as §1, §2, §3

[5] = target: T4, P450 2C9 (Homo sapiens, UniProt P11712); details: recombinant P450 2C9, preliminary screen
T4 construct: made in house; host or cells: Escherichia coli, bacterial membrane fraction, bicistronic vector; reductase topped up to five fold the P450 concentration
T4 sequence (P11712 whole entry): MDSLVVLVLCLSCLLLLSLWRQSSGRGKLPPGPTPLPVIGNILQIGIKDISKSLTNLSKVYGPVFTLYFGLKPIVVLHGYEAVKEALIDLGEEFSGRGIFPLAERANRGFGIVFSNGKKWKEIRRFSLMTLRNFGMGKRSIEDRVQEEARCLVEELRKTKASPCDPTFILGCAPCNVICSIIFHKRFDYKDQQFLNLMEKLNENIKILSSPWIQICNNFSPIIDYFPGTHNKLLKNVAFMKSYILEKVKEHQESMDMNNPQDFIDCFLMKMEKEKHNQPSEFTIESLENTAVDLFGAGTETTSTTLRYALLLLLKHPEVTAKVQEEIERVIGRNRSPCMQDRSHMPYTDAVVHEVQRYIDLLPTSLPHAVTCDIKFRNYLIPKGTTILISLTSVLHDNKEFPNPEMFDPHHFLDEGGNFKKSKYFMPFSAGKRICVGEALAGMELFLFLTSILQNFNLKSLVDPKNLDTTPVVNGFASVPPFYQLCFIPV
Excerpt: as §1, §2, §3

[6] = target: T5, P450 2C19 (Homo sapiens, UniProt P33261); details: recombinant P450 2C19, preliminary screen
T5 construct: made in house; host or cells: Escherichia coli, bacterial membrane fraction, bicistronic vector; reductase topped up to five fold the P450 concentration
T5 sequence (P33261 whole entry): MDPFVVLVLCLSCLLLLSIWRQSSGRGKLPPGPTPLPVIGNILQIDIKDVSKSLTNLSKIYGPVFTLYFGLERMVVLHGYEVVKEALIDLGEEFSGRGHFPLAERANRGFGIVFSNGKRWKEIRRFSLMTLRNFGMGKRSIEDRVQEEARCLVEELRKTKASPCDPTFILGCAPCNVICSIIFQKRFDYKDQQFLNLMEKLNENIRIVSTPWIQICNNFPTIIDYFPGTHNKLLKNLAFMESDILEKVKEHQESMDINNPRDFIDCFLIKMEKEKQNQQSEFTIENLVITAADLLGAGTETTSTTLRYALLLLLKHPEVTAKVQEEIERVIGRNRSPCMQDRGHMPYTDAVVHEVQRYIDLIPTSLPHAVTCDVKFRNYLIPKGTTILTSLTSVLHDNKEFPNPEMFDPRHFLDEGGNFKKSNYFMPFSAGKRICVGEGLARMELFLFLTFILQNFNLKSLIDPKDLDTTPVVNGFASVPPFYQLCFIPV
Excerpt: as §1, §2, §3

[7] = target: T6, P450 3A5 (Homo sapiens, UniProt P20815); details: recombinant P450 3A5, preliminary screen
T6 construct: made in house; host or cells: Escherichia coli, bacterial membrane fraction, bicistronic vector; reductase topped up to two fold the P450 concentration
T6 sequence (P20815 whole entry): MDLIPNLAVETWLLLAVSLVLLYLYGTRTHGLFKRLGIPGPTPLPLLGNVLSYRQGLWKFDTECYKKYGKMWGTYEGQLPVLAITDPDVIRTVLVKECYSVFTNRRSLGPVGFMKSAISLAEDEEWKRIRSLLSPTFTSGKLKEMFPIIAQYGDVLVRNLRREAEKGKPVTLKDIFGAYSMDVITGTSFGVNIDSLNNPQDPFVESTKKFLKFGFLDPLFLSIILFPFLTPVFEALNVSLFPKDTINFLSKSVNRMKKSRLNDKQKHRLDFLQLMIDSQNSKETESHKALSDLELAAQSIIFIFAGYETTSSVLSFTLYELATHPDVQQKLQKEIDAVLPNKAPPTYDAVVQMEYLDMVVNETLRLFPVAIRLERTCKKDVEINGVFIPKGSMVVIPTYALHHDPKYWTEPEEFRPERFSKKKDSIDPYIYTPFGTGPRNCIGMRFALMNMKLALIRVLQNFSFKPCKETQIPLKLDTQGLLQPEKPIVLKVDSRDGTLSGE
Excerpt: as §1, §2, §3

[8] = target: T7, P450 1B1 (Homo sapiens, UniProt Q16678); details: recombinant P450 1B1, preliminary screen
T7 construct: made in house; host or cells: Escherichia coli, bacterial membrane fraction, bicistronic vector
T7 sequence (Q16678 1-543): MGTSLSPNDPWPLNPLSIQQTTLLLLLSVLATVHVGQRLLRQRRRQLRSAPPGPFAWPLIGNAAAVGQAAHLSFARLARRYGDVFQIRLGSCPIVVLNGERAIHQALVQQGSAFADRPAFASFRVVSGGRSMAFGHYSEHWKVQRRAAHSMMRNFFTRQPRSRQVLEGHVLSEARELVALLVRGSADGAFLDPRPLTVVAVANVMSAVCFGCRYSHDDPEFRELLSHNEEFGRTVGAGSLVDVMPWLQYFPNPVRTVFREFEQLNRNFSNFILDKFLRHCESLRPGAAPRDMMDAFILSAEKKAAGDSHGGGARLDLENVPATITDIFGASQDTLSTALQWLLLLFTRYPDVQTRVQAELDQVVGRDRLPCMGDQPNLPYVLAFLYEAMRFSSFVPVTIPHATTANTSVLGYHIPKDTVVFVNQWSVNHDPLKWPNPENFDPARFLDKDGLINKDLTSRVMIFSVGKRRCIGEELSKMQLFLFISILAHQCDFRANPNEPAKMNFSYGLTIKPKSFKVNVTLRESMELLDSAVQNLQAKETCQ
Excerpt: as §1, §2, §3

Measured: consumption of 3

C/C=C\C=C/CC/C=C/C=C/C(=O)NCC(C)C [alkylamide 3, (2E,4E,8Z,10Z)—N-isobutyldodeca-2,4,8,10-tetraenamide]
observed: all assays above
